pIC50: −log10 of the molar value.
These compounds were tested against T1, full length active recombinant SYK enzyme (Homo sapiens, UniProt P43405) (assay: Inhibition of Syk tyrosine phosphorylation activity (LANCE TR-FRET kinase assay)). Conditions: activity in the Syk assays, class symbols.
T1 construct: full length active recombinant SYK enzyme (Millipore, Calif.); purchased Millipore
Type: biochemical
In short: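 1 nM full-length active recombinant SYK phosphorylated 550 nM biotin-DEEDYESP-OH with 100 μM ATP in 50 mM Tris pH 7.5, 5 mM MgCl2, 1 mM DTT and 3% DMSO for 1 h at room temperature. After EDTA quench, Eu-anti-phosphotyrosine/SA-APC TR-FRET was read after 1 h. IC50s came from non-linear regression.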

| SMILES | pIC50 |
| --- | --- |
| NC(=O)c1ncc(N[C@@H]2CCCC[C@@H]2N)nc1Nc1cnn(C2CC2)c1 [Example 258, 5-((1R,2S)-2-aminocyclohexylamino)-3-(1-cyclopropyl-1H-pyrazol-4-ylamino)pyrazine-2-carboxamide] | 7.00 to 8.00 |
| CC(C)(C)C[C@@H](Nc1cnc(C(N)=O)c(Nc2cnn(C3CC3)c2)n1)C(N)=O [Example 259, (R)-5-(1-amino-4,4-dimethyl-1-oxopentan-2-ylamino)-3-(1-cyclopropyl-1H-pyrazol-4-ylamino)pyrazine-2-carboxamide] | 7.00 to 8.00 |
| CC[C@@H](Nc1cnc(C(N)=O)c(Nc2cnn(C3CC3)c2)n1)C(N)=O [Example 260, (R)-5-(1-amino-1-oxobutan-2-ylamino)-3-(1-cyclopropyl-1H-pyrazol-4-ylamino)pyrazine-2-carboxamide] | 6.00 to 7.00 |
| CC[C@@H](Nc1cnc(C(N)=O)c(Nc2ccnc(F)c2)n1)C(N)=O [Example 264, (R)-5-(1-amino-1-oxobutan-2-ylamino)-3-(2-fluoropyridin-4-ylamino)pyrazine-2-carboxamide] | 7.00 to 8.00 |
| Cc1cc(Nc2nc(N[C@H](CC(C)(C)C)C(N)=O)cnc2C(N)=O)sn1 [Example 266, (R)-5-(1-amino-4,4-dimethyl-1-oxopentan-2-ylamino)-3-(3-methylisothiazol-5-ylamino)pyrazine-2-carboxamide] | 7.00 to 8.00 |
| CN(C)C(=O)c1ccc(Nc2nc(N[C@@H]3CCCC[C@@H]3N)cnc2C(N)=O)cc1 [Example 277, 5-((1R,2S)-2-aminocyclohexylamino)-3-(4-(dimethylcarbamoyl)phenylamino)pyrazine-2-carboxamide] | 7.00 to 8.00 |
| CN(C)C(=O)c1ccc(Nc2nc(N[C@@H]3CCCC[C@@H]3N)cnc2C(N)=O)cn1 [Example 278, 5-((1R,2S)-2-aminocyclohexylamino)-3-(6-(dimethylcarbamoyl)pyridin-3-ylamino)pyrazine-2-carboxamide] | 6.00 to 7.00 |
| CN(C)C(=O)c1ccc(Nc2nc(N[C@@H]3CCCC[C@@H]3N)cnc2C(N)=O)cc1Cl [Example 279, 5-((1R,2S)-2-aminocyclohexylamino)-3-(3-chloro-4-(dimethylcarbamoyl)phenylamino)pyrazine-2-carboxamide] | 7.00 to 8.00 |
| NC(=O)c1ncc(N[C@@H]2CCCC[C@@H]2N)nc1Nc1ccc(C(=O)N2CCC2)nc1 [Example 280, 5-((1R,2S)-2-aminocyclohexylamino)-3-(6-(azetidine-1-carbonyl)pyridin-3-ylamino)pyrazine-2-carboxamide] | 7.00 to 8.00 |
| CC(C)C[C@@H](Nc1cnc(C(N)=O)c(Nc2ccc(C(=O)N(C)C)cc2)n1)C(N)=O [Example 281, (R)-5-(1-amino-4-methyl-1-oxopentan-2-ylamino)-3-(4-(dimethylcarbamoyl)phenylamino)pyrazine-2-carboxamide] | 7.00 to 8.00 |
| CN(C)C(=O)c1cccc(Nc2nc(N[C@@H]3CCCC[C@@H]3N)cnc2C(N)=O)c1 [Example 283, 5-((1R,2S)-2-aminocyclohexylamino)-3-(3-(dimethylcarbamoyl)phenylamino)pyrazine-2-carboxamide] | 7.00 to 8.00 |
| CN(C)C(=O)c1cc(Nc2nc(N[C@@H]3CCCC[C@@H]3N)cnc2C(N)=O)ccc1F [Example 284, 5-((1R,2S)-2-aminocyclohexylamino)-3-(3-(dimethylcarbamoyl)-4-fluorophenylamino)pyrazine-2-carboxamide] | 6.00 to 7.00 |
| NC(=O)c1ncc(N[C@@H]2CCCC[C@@H]2N)nc1Nc1ccc(N2CCCC2)c(C(=O)N2CCCC2)c1 [Example 285, 5-((1R,2S)-2-aminocyclohexylamino)-3-(4-(pyrrolidin-1-yl)-3-(pyrrolidine-1-carbonyl)phenylamino)pyrazine-2-carboxamide] | 6.00 to 7.00 |
| COc1ccc(Nc2nc(N[C@@H]3CCCC[C@@H]3N)cnc2C(N)=O)cc1C(=O)N(C)C [Example 286, 5-((1R,2S)-2-aminocyclohexylamino)-3-(3-(dimethylcarbamoyl)-4-methoxyphenylamino)pyrazine-2-carboxamide] | 6.00 to 7.00 |
| NC(=O)c1ncc(N[C@@H]2CCCC[C@@H]2N)nc1Nc1cccc(C(=O)N2CCCC2)c1 [Example 287, 5-((1R,2S)-2-aminocyclohexylamino)-3-(3-(pyrrolidine-1-carbonyl)phenylamino)pyrazine-2-carboxamide] | 7.00 to 8.00 |
| CN(C)C(=O)c1ccc(F)c(Nc2nc(N[C@@H]3CCCC[C@@H]3N)cnc2C(N)=O)c1 [Example 288, 5-((1R,2S)-2-aminocyclohexylamino)-3-(5-(dimethylcarbamoyl)-2-fluorophenylamino)pyrazine-2-carboxamide] | 6.00 to 7.00 |
| NC(=O)c1ncc(N[C@@H]2CCCC[C@@H]2N)nc1Nc1cc(C(=O)N2CCCC2)ccc1F [Example 289, 5-((1R,2S)-2-aminocyclohexylamino)-3-(2-fluoro-5-(pyrrolidine-1-carbonyl)phenylamino)pyrazine-2-carboxamide] | 7.00 to 8.00 |
| COc1ccc(C(=O)N(C)C)cc1Nc1nc(N[C@@H]2CCCC[C@@H]2N)cnc1C(N)=O [Example 290, 5-((1R,2S)-2-aminocyclohexylamino)-3-(5-(dimethylcarbamoyl)-2-methoxyphenylamino)pyrazine-2-carboxamide] | 6.00 to 7.00 |
| COc1cc(Nc2nc(N[C@@H]3CCCC[C@@H]3N)cnc2C(N)=O)ccn1 [Example 291, 5-((1R,2S)-2-aminocyclohexylamino)-3-(2-methoxypyridin-4-ylamino)pyrazine-2-carboxamide] | 8.00 to 9.00 |
| CC(C)C[C@@H](Nc1cnc(C(N)=O)c(Nc2cccc(C(=O)N(C)C)c2)n1)C(N)=O [Example 292, (R)-5-(1-amino-4-methyl-1-oxopentan-2-ylamino)-3-(3-(dimethylcarbamoyl)phenylamino)pyrazine-2-carboxamide] | 6.00 to 7.00 |
| CC(C)C[C@@H](Nc1cnc(C(N)=O)c(Nc2ccc(C(=O)N3CCC3)cc2)n1)C(N)=O [Example 293, (R)-5-(1-amino-4-methyl-1-oxopentan-2-ylamino)-3-(4-(azetidine-1-carbonyl)phenylamino)pyrazine-2-carboxamide] | 8.00 to 9.00 |
| CC(C)C[C@@H](Nc1cnc(C(N)=O)c(Nc2ccc(C(=O)O)nc2)n1)C(N)=O [Example 294, (R)-5-(6-(1-amino-4-methyl-1-oxopentan-2-ylamino)-3-carbamoylpyrazin-2-ylamino)picolinic acid] | 6.00 to 7.00 |
| NC(=O)c1ncc(N[C@@H]2CCCC[C@@H]2N)nc1Nc1ccc(C(=O)N2CCC2)cc1 [Example 295, 5-((1R,2S)-2-aminocyclohexylamino)-3-(4-(azetidine-1-carbonyl)phenylamino)pyrazine-2-carboxamide] | 8.00 to 9.00 |

Now from value to compound:

| pIC50 | SMILES |
| --- | --- |
| 8.00 to 9.00 | CC(C)(C)C[C@@H](Nc1cnc(C(N)=O)c(Nc2snc3sccc23)n1)C(N)=O [Example 261, (R)-5-(1-amino-4,4-dimethyl-1-oxopentan-2-ylamino)-3-(thieno[2,3-c]isothiazol-3-ylamino)pyrazine-2-carboxamide] |
| > 9.00 | NC(=O)c1ncc(N[C@@H]2CCCC[C@@H]2N)nc1Nc1cnn(-c2ccccc2)c1 [Example 262, 5-((1R,2S)-2-aminocyclohexylamino)-3-(1-phenyl-1H-pyrazol-4-ylamino)pyrazine-2-carboxamide] |
| 8.00 to 9.00 | NC(=O)c1ncc(N[C@@H]2CCCC[C@@H]2N)nc1Nc1ccnc(F)c1 [Example 263, 5-((1R,2S)-2-aminocyclohexylamino)-3-(2-fluoropyridin-4-ylamino)pyrazine-2-carboxamide] |
| 8.00 to 9.00 | CC(C)(C)C[C@@H](Nc1cnc(C(N)=O)c(Nc2ccnc(F)c2)n1)C(N)=O [Example 265, (R)-5-(1-amino-4,4-dimethyl-1-oxopentan-2-ylamino)-3-(2-fluoropyridin-4-ylamino)pyrazine-2-carboxamide] |
| 8.00 to 9.00 | NC(=O)c1ncc(N[C@@H]2CCCC[C@@H]2N)nc1Nc1snc2ccsc12 [Example 267, 5-((1R,2S)-2-aminocyclohexylamino)-3-(thieno[3,2-c]isothiazol-3-ylamino)pyrazine-2-carboxamide] |
| 8.00 to 9.00 | CC[C@@H](Nc1cnc(C(N)=O)c(Nc2snc3ccsc23)n1)C(N)=O [Example 268, (R)-5-(1-amino-1-oxobutan-2-ylamino)-3-(thieno[3,2-c]isothiazol-3-ylamino)pyrazine-2-carboxamide] |
| > 9.00 | CC[C@@H](Nc1cnc(C(N)=O)c(Nc2snc3ccccc23)n1)C(N)=O [Example 269, (R)-5-(1-amino-1-oxobutan-2-ylamino)-3-(benzo[c]isothiazol-3-ylamino)pyrazine-2-carboxamide] |
| > 9.00 | NC(=O)c1ncc(N[C@@H]2CCCC[C@@H]2N)nc1Nc1snc2ccccc12 [Example 270, 5-((1R,2S)-2-aminocyclohexylamino)-3-(benzo[c]isothiazol-3-ylamino)pyrazine-2-carboxamide] |
| > 9.00 | CC[C@@H](Nc1cnc(C(N)=O)c(Nc2snc3sccc23)n1)C(N)=O [Example 271, (R)-5-(1-amino-1-oxobutan-2-ylamino)-3-(thieno[2,3-c]isothiazol-3-ylamino)pyrazine-2-carboxamide] |
| > 9.00 | Cc1cccc(Nc2nc(N[C@@H]3CCCC[C@@H]3N)cnc2C(N)=O)c1 [Example 275, 5-((1R,2S)-2-aminocyclohexylamino)-3-(m-tolylamino)pyrazine-2-carboxamide] |
| 8.00 to 9.00 | NC(=O)c1ncc(N[C@@H]2CCCC[C@@H]2N)nc1Nc1ccc(-n2cccn2)cc1 [Example 276, 3-(4-(1H-pyrazol-1-yl)phenylamino)-5-((1R,2S)-2-aminocyclohexylamino)pyrazine-2-carboxamide] |
| 8.00 to 9.00 | CC(C)C[C@@H](Nc1cnc(C(N)=O)c(Nc2ccc(C(=O)N3CCC3)nc2)n1)C(N)=O [Example 282, (R)-5-(1-amino-4-methyl-1-oxopentan-2-ylamino)-3-(6-(azetidine-1-carbonyl)pyridin-3-ylamino)pyrazine-2-carboxamide] |

— US9359308B2, “Pyrazine kinase inhibitors” (Portola Pharmaceuticals, Inc., priority 2011, dated 2016)
